Reference: PubChem BioAssay (NCI)
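Test compounds were applied to cells in 96-well plates for 48 hours at 5 doses. GI50: concentration for 50% inhibition of growth. At the TGI there is no net growth.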

How the values were obtained:
Assay in all cases: NCI-60 cell line screen, 48 h
[1] = tested on: SK-MEL-2 melanoma
[2] = tested on: MCF7 breast
[3] = tested on: ACHN renal
[4] = tested on: HCT-116 colon
[5] = tested on: SW-620 colon
[6] = tested on: UACC-62 melanoma
[7] = tested on: CAKI-1 renal
[8] = tested on: OVCAR-5 ovarian
[9] = tested on: HOP-62 NSCLC
[10] = tested on: K-562 leukemia
[11] = tested on: SF-268 CNS
[12] = tested on: DU-145 prostate
[13] = tested on: LOX IMVI melanoma
[14] = tested on: SK-MEL-5 melanoma
[15] = tested on: T-47D breast
[16] = tested on: NCI-H522 lung
[17] = tested on: SR leukemia
[18] = tested on: RPMI-8226 leukemia
[19] = tested on: COLO 205 colon
[20] = tested on: SN12C renal
[21] = tested on: HCT-15 colon
[22] = tested on: SNB-75 CNS
[23] = tested on: SNB-19 CNS
[24] = tested on: OVCAR-8 ovarian
[25] = tested on: HS 578T breast
[26] = tested on: MDA-MB-435
[27] = tested on: MOLT-4 leukemia
[28] = tested on: MALME-3M melanoma
[29] = tested on: IGROV1 ovarian
[30] = tested on: BT-549 breast
[31] = tested on: RXF 393 renal
[32] = tested on: M14 melanoma
[33] = tested on: U251 CNS
[34] = tested on: UO-31 renal
[35] = tested on: HT29 colon
[36] = tested on: TK-10 renal
[37] = tested on: SK-MEL-28 melanoma
[38] = tested on: NCI-H460 lung
[39] = tested on: SF-539 CNS
[40] = tested on: MDA-MB-468 breast
[41] = tested on: NCI-H23 lung
[42] = tested on: NCI/ADR-RES ovarian
[43] = tested on: CCRF-CEM leukemia
[44] = tested on: MDA-MB-231 breast
[45] = tested on: A498 renal
[46] = tested on: NCI-H226 lung
[47] = tested on: HOP-92 NSCLC
[48] = tested on: HL-60(TB) leukemia
[49] = tested on: OVCAR-3 ovarian
[50] = tested on: OVCAR-4 ovarian
[51] = tested on: KM12 colon
[52] = tested on: SF-295 CNS
[53] = tested on: A549 NSCLC
[54] = tested on: 786-0 renal
[55] = tested on: HCC-2998 colon
[56] = tested on: EKVX NSCLC
[57] = tested on: PC-3 prostate
[58] = tested on: SK-OV-3 ovarian
[59] = tested on: UACC-257 melanoma

CCOP(=O)(CC(F)(F)C(F)(F)F)OCC
GI50 [1]: 17.3 µM | TGI [1]: 39.2 µM | GI50 [2]: 2.45 µM | TGI [2]: 12.1 µM | GI50 [3]: 1.86 µM | TGI [3]: 3.55 µM | GI50 [4]: 1.86 µM | TGI [4]: 4.86 µM | GI50 [5]: 1.83 µM | TGI [5]: 3.92 µM | GI50 [6]: 2.35 µM | TGI [6]: 8.87 µM | GI50 [7]: 3.06 µM | TGI [7]: 10.6 µM | GI50 [8]: 17.6 µM | TGI [8]: 32.5 µM | GI50 [9]: 22.2 µM | TGI [9]: 54.4 µM | GI50 [10]: 2.62 µM | TGI [10]: 17.9 µM | GI50 [11]: 17.9 µM | TGI [11]: 54.4 µM | GI50 [12]: 5.56 µM | TGI [12]: 18.4 µM | GI50 [13]: 1.78 µM | TGI [13]: 3.91 µM | GI50 [14]: 3.38 µM | TGI [14]: 13.7 µM | GI50 [15]: 2.19 µM | TGI [15]: 7.23 µM | GI50 [16]: 0.505 µM | TGI [16]: 1.86 µM | GI50 [17]: 2.4 µM | TGI [17]: 11.5 µM | GI50 [18]: 3.44 µM | TGI [18]: 13.1 µM | GI50 [19]: 1.84 µM | TGI [19]: 3.43 µM | GI50 [20]: 16.6 µM | TGI [20]: 42.2 µM | GI50 [21]: 1.56 µM | TGI [21]: 3.73 µM | GI50 [22]: 1.95 µM | TGI [22]: 36.7 µM | GI50 [23]: 26.2 µM | TGI [23]: > 100 µM | GI50 [24]: 3.79 µM | TGI [24]: 55.3 µM | GI50 [25]: 5.55 µM | TGI [25]: 94 µM | GI50 [26]: 3.31 µM | TGI [26]: 14.5 µM | GI50 [27]: 1.92 µM | TGI [27]: 10.3 µM | GI50 [28]: 1.83 µM | TGI [28]: 3.62 µM | GI50 [29]: 18.5 µM | TGI [29]: 38.8 µM | GI50 [30]: 4.17 µM | TGI [30]: 20.5 µM | GI50 [31]: 1.06 µM | TGI [31]: 2.37 µM | GI50 [32]: 2.02 µM | TGI [32]: 5.31 µM | GI50 [33]: 20.7 µM | TGI [33]: 60.2 µM | GI50 [34]: 2.82 µM | TGI [34]: 10.9 µM | GI50 [35]: 2.25 µM | TGI [35]: 4.96 µM | GI50 [36]: 3.11 µM | TGI [36]: 7.27 µM | GI50 [37]: 1.82 µM | TGI [37]: 3.85 µM | GI50 [38]: 17 µM | TGI [38]: 37.5 µM | GI50 [39]: 2.02 µM | TGI [39]: 4.75 µM | GI50 [40]: 1.24 µM | TGI [40]: 2.99 µM | GI50 [41]: 7.93 µM | TGI [41]: 23.9 µM | GI50 [42]: 2.31 µM | TGI [42]: 5.95 µM | GI50 [43]: 2.9 µM | TGI [43]: 15.8 µM | GI50 [44]: 3.43 µM | TGI [44]: 12.3 µM | GI50 [45]: 19.7 µM | TGI [45]: 37 µM | GI50 [46]: 16.5 µM | TGI [46]: 58.2 µM | GI50 [47]: 3.37 µM | TGI [47]: 10.7 µM | GI50 [48]: 1.71 µM | TGI [48]: 5.89 µM | GI50 [49]: 2.76 µM | TGI [49]: 7.98 µM | GI50 [50]: 8.98 µM | TGI [50]: 23.9 µM | GI50 [51]: 17.2 µM | TGI [51]: 33.6 µM | GI50 [52]: 15.6 µM | TGI [52]: 33.2 µM | GI50 [53]: 30.7 µM | TGI [53]: > 100 µM | GI50 [54]: 4.2 µM | TGI [54]: 16.8 µM | GI50 [55]: 12.2 µM | TGI [55]: 25.2 µM | GI50 [56]: 3.17 µM | TGI [56]: 12.6 µM | GI50 [57]: 4.6 µM | TGI [57]: 25.6 µM | GI50 [58]: 27.4 µM | TGI [58]: 74.8 µM | GI50 [59]: 2.57 µM | TGI [59]: 11.1 µM
